Data on 10 molecules can be found in US20240409585A1, “MACROCYCLIC IMMUNOMODULATORS” (priority 2021, published 2024).

The assay concerns the target T1, PE-labeled human PD-L1-Ig binding to Jurkat cell line over-expressing human PD-1 (Jurkat-PD-1) (Homo sapiens, UniProt Q15116).
T1 construct: expressed in transfected cells; host or cells: Jurkat
The experiment in a line: Jurkat-PD-1 Cell Binding High-Content Screening Assay (CBA): Method 1. The note with it: Jurkat-hPD-1 cells, PE-labeled PD-L1-Ig 20 nM final; read-out: Jurkat HPDL1 PD1 IC50 (uM) (Method 1).

Bridge positions count the residues as written; N and C are the ends. Square brackets hold non-standard residues; d marks the D form. Peptide text beside a SMILES is read from it. * marks the point of attachment. ξ: configuration not given here. Phe(4-COOH) = N[C@@H](Cc1ccc(C(=O)O)cc1)C(=O)O; Bip = N[C@@H](Cc1ccc(-c2ccccc2)cc1)C(=O)O; Phe(4-CN) = N#Cc1ccc(C[C@H](N)C(=O)O)cc1; Phe(3-Me) = Cc1cccc(C[C@H](N)C(=O)O)c1; NMeY = CN[C@@H](Cc1ccc(O)cc1)C(=O)O; Val(3-OH) = CC(C)(O)[C@H](N)C(=O)O; aIle = CC[C@@H](C)[C@H](N)C(=O)O; 4Pal = N[C@@H](Cc1ccncc1)C(=O)O; Cha = N[C@@H](CC1CCCCC1)C(=O)O; Ile(3ξ) = CCC(C)[C@H](N)C(=O)O; Thr(3ξ) = CC(O)[C@H](N)C(=O)O; Ala(CN) = N#CC[C@H](N)C(=O)O; Carboxymethyl = O=C(O)C*; NMeA = CN[C@@H](C)C(=O)O; Dab = NCC[C@H](N)C(=O)O; Dap = NC[C@H](N)C(=O)O; ξV = CC(C)C(N)C(=O)O; ξC = NC(CS)C(=O)O

T1 sequence (Q15116 25-288): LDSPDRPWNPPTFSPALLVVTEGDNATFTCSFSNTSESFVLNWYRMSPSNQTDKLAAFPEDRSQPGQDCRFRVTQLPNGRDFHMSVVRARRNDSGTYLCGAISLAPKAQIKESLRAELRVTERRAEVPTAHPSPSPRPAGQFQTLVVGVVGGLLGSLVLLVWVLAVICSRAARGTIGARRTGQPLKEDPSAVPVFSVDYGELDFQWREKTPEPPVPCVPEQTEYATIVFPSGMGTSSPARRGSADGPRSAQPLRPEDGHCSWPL

`CC[C@H](C)[C@@H]1NC(=O)[C@H](Cc2ccc(-c3ccccc3)cc2)NC(=O)[C@H](C(C)(C)O)NC(=O)[C@H](Cc2cccc(C)c2)NC(=O)[C@H](CC(=O)O)NC(=O)[C@H](Cc2ccc(O)cc2)NC(=O)[C@H](CC(N)=O)NC(=O)CSC[C@@H](C(=O)N[C@H](C)C(N)=O)NC(=O)[C@H](CCC(=O)O)NC(=O)[C@H](C(C)(C)O)NC(=O)[C@H](CC2CCCCC2)NC(=O)[C@H](CCN)NC(=O)[C@@H](CC(C)C)NC(=O)[C@H](C)N(C)C1=O` [Compound 1700] ({CH2CO}-NYD[Phe(3-Me)][Val(3-OH)][Bip]I[NMeA][dL][Dab][Cha][Val(3-OH)]EC[dA]-NH2; thioether N-14): the IC50 was 0.18 µM. As for `CCC(C)[C@@H]1NC(=O)[C@H](Cc2ccc(-c3ccccc3)cc2)NC(=O)[C@H](C(C)C)NC(=O)[C@H](Cc2c[nH]c3ccccc23)NC(=O)[C@H](CC(=O)O)NC(=O)[C@H](Cc2ccc(O)cc2)NC(=O)[C@H](Cc2ccncc2)NC(=O)CSC[C@@H](C(=O)N[C@@H](CC(=O)O)C(=O)N[C@@H](CCN)C(=O)O)NC(=O)[C@H](C(C)O)NC(=O)[C@H](C(C)C)NC(=O)[C@H](CC2CCCCC2)NC(=O)[C@H](CC(N)=O)NC(=O)[C@@H](CC(C)C)NC(=O)[C@H](C)N(C)C1=O` (stereo partly drawn) [Compound 2001] ({CH2CO}-[4Pal]YDWV[Bip][Ile(3ξ)][NMeA][dL]N[Cha]V[Thr(3ξ)]CD[Dab]-OH; thioether N-14), the IC50 was determined as 0.11 µM. Turning to `CCC(C)[C@@H]1NC(=O)[C@H](Cc2ccc(-c3ccccc3)cc2)NC(=O)[C@H](C(C)C)NC(=O)[C@H](Cc2cccc(C)c2)NC(=O)[C@H](CC(=O)O)NC(=O)[C@H](Cc2ccc(OCC(=O)O)cc2)NC(=O)[C@H](Cc2ccncc2)NC(=O)CSCC(C(=O)N[C@@H](CCC(=O)O)C(=O)N[C@@H](CN)C(=O)O)NC(=O)[C@H](CO)NC(=O)[C@H](C(C)C)NC(=O)[C@H](CC2CCCCC2)NC(=O)[C@H](CC(N)=O)NC(=O)[C@@H](CC(C)C)NC(=O)[C@H](C)N(C)C1=O` (stereo partly drawn) [Compound 2007] ({CH2CO}-[4Pal]Y(Carboxymethyl)D[Phe(3-Me)]V[Bip][Ile(3ξ)][NMeA][dL]N[Cha]VS[ξC]E[Dap]-OH; thioether N-14), the IC50 amounted to 0.01 µM. Take `Cc1cccc(C[C@@H]2NC(=O)[C@H](CC(=O)O)NC(=O)[C@H](Cc3ccc(C(=O)O)cc3)NC(=O)[C@H](C(C)O)NC(=O)CSC[C@@H](C(=O)N[C@@H](CCN)C(N)=O)NC(=O)[C@H](CO)NC(=O)[C@H](C(C)(C)O)NC(=O)[C@H](CC3CCCCC3)NC(=O)[C@H](CCN)NC(=O)[C@@H](CC(C)C)NC(=O)[C@H](C)N(C)C(=O)[C@H](Cc3ccc(OCC(=O)O)cc3)NC(=O)[C@H](Cc3ccc(-c4ccccc4)cc3)NC(=O)[C@H](Cc3ccc(OCC(=O)O)cc3)NC2=O)c1` (stereo partly drawn) [Compound 2151] ({CH2CO}-[Thr(3ξ)][Phe(4-COOH)]D[Phe(3-Me)]Y(Carboxymethyl)[Bip]Y(Carboxymethyl)[NMeA][dL][Dab][Cha][Val(3-OH)]SC[Dab]-NH2; thioether N-14): the IC50 is 0.02 µM.

Turning to `CC[C@@H](C)[C@@H]1NC(=O)[C@H](Cc2ccc(-c3ccccc3)cc2)NC(=O)[C@H](CC(C)C)NC(=O)[C@H](Cc2c[nH]c3ccccc23)NC(=O)[C@H](CC(=O)O)NC(=O)[C@H](Cc2ccc(C(=O)O)cc2)NC(=O)[C@H](Cc2ccc(OCC(=O)O)cc2)NC(=O)CSC[C@@H](C(=O)N[C@@H](CCCCN)C(N)=O)NC(=O)[C@H](CC#N)NC(=O)C(C(C)C)NC(=O)[C@H](CC(C)C)NC(=O)[C@H](CC(N)=O)NC(=O)[C@@H](CC(C)C)NC(=O)[C@H](C)N(C)C1=O` (stereo partly drawn) [Compound 2106] ({CH2CO}-Y(Carboxymethyl)[Phe(4-COOH)]DWL[Bip][aIle][NMeA][dL]NL[ξV][Ala(CN)]CK-NH2; thioether N-14), the IC50 was determined as 0.06 µM. Regarding `Cc1cccc(C[C@@H]2NC(=O)[C@H](CC(=O)O)NC(=O)[C@H](Cc3ccc(OCC(=O)O)cc3)NC(=O)[C@H](Cc3ccc(OCC(=O)O)cc3)NC(=O)CSC[C@@H](C(N)=O)NC(=O)[C@H](CC(N)=O)NC(=O)[C@H](C(C)C)NC(=O)[C@H](CC3CCCCC3)NC(=O)[C@H](CCN)NC(=O)[C@@H](CC(C)C)NC(=O)[C@H](C)N(C)C(=O)[C@H](Cc3ccc(OCC(=O)O)cc3)NC(=O)[C@H](Cc3ccc(-c4ccccc4)cc3)NC(=O)[C@H](Cc3ccc(OCC(=O)O)cc3)NC2=O)c1` [Compound 1653] ({CH2CO}-Y(Carboxymethyl)Y(Carboxymethyl)D[Phe(3-Me)]Y(Carboxymethyl)[Bip]Y(Carboxymethyl)[NMeA][dL][Dab][Cha]VNC-NH2; thioether N-14), the IC50 was found to be 0.03 µM. Next, `Cc1cccc(C[C@@H]2NC(=O)[C@H](CC(=O)O)NC(=O)[C@H](Cc3ccc(OCC(=O)O)cc3)NC(=O)[C@H](Cc3ccncc3)NC(=O)CSC[C@@H](C(=O)N[C@@H](CCN)C(N)=O)NC(=O)[C@H](CO)NC(=O)[C@H](C(C)(C)O)NC(=O)[C@H](CC3CCCCC3)NC(=O)[C@H](CCN)NC(=O)[C@@H](CC(C)C)NC(=O)[C@H](Cc3ccc(O)cc3)N(C)C(=O)[C@H](Cc3ccc(OCC(=O)O)cc3)NC(=O)[C@H](Cc3ccc(-c4ccccc4)cc3)NC(=O)[C@H](Cc3ccc(OCC(=O)O)cc3)NC2=O)c1` [Compound 1835] ({CH2CO}-[4Pal]Y(Carboxymethyl)D[Phe(3-Me)]Y(Carboxymethyl)[Bip]Y(Carboxymethyl)[NMeY][dL][Dab][Cha][Val(3-OH)]SC[Dab]-NH2; thioether N-14): 0.11 µM; `Cc1cccc(C[C@@H]2NC(=O)[C@H](CC(=O)O)NC(=O)[C@H](Cc3ccc(OCC(=O)O)cc3)NC(=O)[C@H](CN)NC(=O)CSC[C@@H](C(N)=O)NC(=O)[C@H](CCC(=O)O)NC(=O)[C@H](C(C)C)NC(=O)[C@H](CC3CCCCC3)NC(=O)[C@H](CCN)NC(=O)[C@@H](CC(C)C)NC(=O)[C@H](C)N(C)C(=O)[C@H](Cc3ccc(OCC(=O)O)cc3)NC(=O)[C@H](Cc3ccc(-c4ccccc4)cc3)NC(=O)[C@H](Cc3ccc(OCC(=O)O)cc3)NC2=O)c1` [Compound 1651] ({CH2CO}-[Dap]Y(Carboxymethyl)D[Phe(3-Me)]Y(Carboxymethyl)[Bip]Y(Carboxymethyl)[NMeA][dL][Dab][Cha]VEC-NH2; thioether N-14): 0.1 µM; `CC(C)C[C@@H]1NC(=O)[C@H](CCCNC(=N)N)NC(=O)[C@@H](Cc2ccccc2)NC(=O)[C@H](C)N(C)C(=O)[C@H](CCCNC(=N)N)NC(=O)[C@H](Cc2ccc(-c3ccccc3)cc2)NC(=O)[C@H](C(C)C)NC(=O)[C@H](Cc2c[nH]c3ccccc23)NC(=O)[C@H](CC(=O)O)NC(=O)[C@H](Cc2ccc(O)cc2)NC(=O)[C@H](CCC(N)=O)NC(=O)CSC[C@@H](C(=O)NCC(N)=O)NC(=O)[C@H](CO)NC(=O)[C@H](C(C)C)NC1=O` [Compound 1023] ({CH2CO}-QYDWV[Bip]R[NMeA][dF]RLVSCG-NH2; thioether N-14): 0.14 µM. For `CC(C)C[C@@H]1NC(=O)[C@H](CCN)NC(=O)[C@@H](CC(C)C)NC(=O)[C@H](C)N(C)C(=O)[C@H](CCCNC(=N)N)NC(=O)[C@H](Cc2ccc(-c3ccccc3)cc2)NC(=O)[C@H](C(C)C)NC(=O)[C@H](Cc2c[nH]c3ccccc23)NC(=O)[C@H](CC(=O)O)NC(=O)[C@H](Cc2ccc(C#N)cc2)NC(=O)[C@H](Cc2ccncc2)NC(=O)CSC[C@@H](C(=O)N[C@@H](C)C(N)=O)NC(=O)[C@H]([C@@H](C)O)NC(=O)[C@H](C(C)C)NC1=O` [Compound 1446] ({CH2CO}-[4Pal][Phe(4-CN)]DWV[Bip]R[NMeA][dL][Dab]LVTCA-NH2; thioether N-14), the IC50 turned out to be 0.08 µM.
